What all share (test): DTP human tumour cell line panel, 48 h
Assay [1] has as its system RXF 393 renal.
The subject of assay [2] is HL-60(TB) leukemia.
Assay [3] has as its system SW-620 colon.
For assay [4], the system named is HCT-116 colon.
For assay [5], the system named is SK-MEL-28 melanoma.
Assay [6] concerns HS 578T breast.
Assay [7] has as its system OVCAR-8 ovarian.
Assay [8] relates to SN12C renal.
The test system of assay [9] is HOP-62 NSCLC.
The subject of assay [10] is MDA-MB-231 breast.
In assay [11] the test system is 786-0 renal.

Where “and” joins values, the source holds several entries; their conditions need not be identical. Equal entries are not always repeated.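 A five-concentration, 48-hour dose response in 96-well plates underlies each endpoint, interpolated linearly between surrounding concentrations. At the GI50, growth is halved. The concentration for full growth arrest is given as TGI.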 Bounds are passed on as bounds.

In the case of `CC1=NN=C(C)C1N=Nc1ccc2nc(C)[nH]c2c1`, the total growth inhibition concentration (TGI) (commonly the concentration giving total growth inhibition) is 55.5 µM in [1]; above 100 µM in assay [2]; above 100 µM in [3]; above 72.5 µM in assay [4]; above 100 µM in [5]; 29.4 µM in [6]. The total growth inhibition concentration (TGI) in assay [7] is above 100 µM; in assay [8], above 100 µM; in [9], above 100 µM; in assay [10] it was above 88.2 µM; in assay [11] it was above 100 µM.
For `CCOC(=O)C(NC(=O)OCc1ccccc1)C(=O)O` (stereo unspecified), the total growth inhibition concentration (TGI) in [1], in assay [2], in [3], in assay [4], in [5] and in assay [6] was above 100 µM each time. Moreover, the TGI in [7], in [8], in assay [9], in assay [10] and in [11] was above 100 µM throughout.
Take `O=C1CN(c2ccccc2)Cc2nc(Cl)ccc2N1`: the TGI in assay [1], in [2], in assay [3], in assay [4], in [5] and in [6] was above 100 µM in each case. In addition, the total growth inhibition concentration (TGI) in [7], in [8], in [9], in assay [10] and in assay [11] was above 100 µM throughout.
Turning to `Brc1ccc(C2C3CSc4ccccc4C3=NN2c2ccccc2)cc1` (stereo unspecified), the concentration for total growth inhibition (TGI) in assay [1], in [2], in assay [3], in [4], in assay [5] and in assay [6] was above 100 µM throughout. The TGI in [7], in [8], in [9], in [10] and in assay [11] was above 100 µM each time.
As for `CSc1nc(=S)[nH]c2c1c(C)nn2-c1ccccc1`, the concentration for total growth inhibition (TGI) was 94.1 µM in [1]; above 100 µM in assay [2]; above 100 µM in [3]; 43.2 µM in [4]; above 100 µM in assay [5]; above 100 µM in [6]. For the same molecule, the TGI in [8] is 52.7 µM; in assay [9] it was above 100 µM; in assay [10], 64.9 µM; in assay [11], 88.1 µM.
On to `CC1=CC(=O)CC2(C)CCC(C(C)CC(=O)CC(C)C)CC12OO` (stereo unspecified), for which the GI50 (in general, the concentration giving 50% growth inhibition) in assay [1] was 12.5 µM and 32.6 µM. Besides, the TGI is 26.2 µM and > 100 µM in [1]; 74.7 µM and 17.4 µM in [2]; 31.9 µM and 35.7 µM in assay [3]; 30.2 µM and 29.7 µM in assay [4]; 28.5 µM and 32.5 µM in assay [5]; 88.3 µM and > 100 µM in assay [6]. Moreover, the TGI in [7] was 90.2 µM and 45.4 µM; in assay [8], 38 µM and 33.8 µM; in assay [10], 29.5 µM and 32.7 µM; in [11], 22.7 µM and 26 µM.
With `CC(CSC(=N)N)C(N)=O` (stereo unspecified), the concentration for total growth inhibition (TGI) in assay [1], in [2], in assay [3], in [4], in [5] and in assay [6] was above 100 µM each time. Moreover, the TGI in assay [7], in [8], in [9], in assay [10] and in [11] was above 100 µM throughout.
For the molecule `O=C(NCCN1CCCCC1)c1ccc(Br)cc1`, the TGI in assay [1], in [2], in assay [3], in assay [4], in [5] and in assay [6] was above 100 µM in each case. Besides, the total growth inhibition concentration (TGI) in [7], in assay [8], in assay [9], in assay [10] and in assay [11] was above 100 µM each time.
With `CC(C)(C)OC(=O)NC1CCCC1C(=O)C1=CCCC1` (stereo unspecified), the concentration for total growth inhibition (TGI) in assay [1], in [2], in assay [3], in assay [4], in assay [5] and in [6] was above 100 µM each time. The concentration for total growth inhibition (TGI) in assay [7], in [8], in assay [9], in assay [10] and in assay [11] was above 100 µM throughout.
Consider `CS(=O)(=O)N1CC(CCl)c2ccc(NO)cc21` (stereo unspecified), for which the total growth inhibition concentration (TGI) in assay [1] was 10.9 µM; in assay [2] it was 20 µM; in assay [3], above 50.4 µM; in [4], 32 µM; in assay [5], 40.3 µM; in [6], 60 µM. Moreover, the TGI in assay [7] is 27.9 µM; in assay [8] it was 32.6 µM; in assay [9], 47.4 µM; in assay [10], 30.5 µM; in [11] it was 28 µM.
For `C1CNOCCCONCCCNOCCCONC1`, the TGI is 64.2 µM in assay [1]; above 100 µM in assay [2]; above 100 µM in [3]; above 100 µM in assay [4]; above 100 µM in assay [5]; above 100 µM in assay [6]. Also, the TGI was above 100 µM in assay [7]; above 100 µM in assay [8]; above 100 µM in assay [9]; 79.6 µM in assay [10]; above 100 µM in assay [11].
For `COc1nc(N=P(c2ccccc2)(c2ccccc2)c2ccccc2)cc(=O)n1C`, the total growth inhibition concentration (TGI) in assay [1], in [2], in assay [3], in [4], in assay [5] and in [6] was above 100 µM throughout. The TGI in assay [7], in [8], in assay [9], in assay [10] and in assay [11] was above 100 µM throughout.
With `O=C1N/C(=N\N=C\c2ccccc2)C(c2ccccc2)O1` (stereo unspecified), the total growth inhibition concentration (TGI) in assay [1], in assay [2], in assay [3], in assay [4], in [5] and in assay [6] was above 100 µM each time. The TGI in assay [7], in assay [8], in assay [9], in assay [10] and in assay [11] was above 100 µM each time.
Turning to `FC(F)(F)c1ccc(C2ON=C(c3ccccc3)N2C23CC4CC(CC(C4)C2)C3)cc1` (stereo unspecified), the TGI in assay [1], in assay [2], in assay [3], in assay [4], in [5] and in assay [6] was above 10 µM throughout. Moreover, the TGI in assay [7], in assay [8], in [9], in assay [10] and in assay [11] was above 10 µM each time.
On to `O=C/C(=C1/C=Cc2cc([N+](=O)[O-])ccc2S1)c1ccccc1`, for which the concentration for total growth inhibition (TGI) in assay [1], in [2], in [4], in assay [5], in [6] and in assay [8] was above 100 µM throughout. The concentration for total growth inhibition (TGI) in [9], in assay [10] and in assay [11] was above 100 µM each time.
For `Cn1c(=O)c2[nH]c(N=O)nc2n(C)c1=O`, the total growth inhibition concentration (TGI) in assay [1], in assay [2], in assay [3], in assay [4], in assay [5] and in assay [6] was above 100 µM each time. In addition, the TGI in assay [7], in [8], in [9], in [10] and in [11] was above 100 µM each time.
In the case of `COC(=O)c1ccc2c(c1)CC1(C2)Cc2cc3c(cc2C1)CCC3`, the TGI in assay [1], in assay [2], in assay [3], in assay [4], in assay [5] and in assay [6] was above 100 µM in each case. Further, the TGI in assay [7], in [9], in assay [10] and in assay [11] was above 100 µM throughout.
Regarding `O=c1[nH]/c(=C/c2ccc3c(c2)OCO3)c(=O)[nH]/c1=C/c1ccc2c(c1)OCO2`, the TGI in assay [1], in assay [3], in [4], in [5], in [6] and in assay [7] was above 10 µM throughout. For the same molecule, the total growth inhibition concentration (TGI) in [8], in [9], in assay [10] and in assay [11] was above 10 µM in each case.
As for `CNC(=O)c1n[nH]n(C2CCCCC2)c1=S`, the concentration for total growth inhibition (TGI) in assay [1], in [2], in assay [3], in assay [4], in assay [5] and in assay [6] was above 100 µM in each case. In addition, the TGI in assay [7], in assay [8], in assay [9], in assay [10] and in assay [11] was above 100 µM throughout.
As to `CC(C)[C@@H]1CC[C@@H](C)C[C@H]1OC(=O)c1c2n(c3ccccc13)C[C@H]1OC(C)(C)O[C@@H]21`, the TGI was 82.9 µM in assay [1]; above 100 µM in assay [2]; above 100 µM in [3]; above 100 µM in assay [4]; above 100 µM in assay [5]; 51.9 µM in [6]. Moreover, the TGI in assay [7], in assay [8], in assay [9], in assay [10] and in [11] was above 100 µM throughout.
As for `O=C1Oc2ccccc2C1C/C(=N\Nc1ccccc1)c1ccccc1O` (stereo unspecified), the total growth inhibition concentration (TGI) in assay [1], in assay [2], in assay [3], in [4], in [5] and in assay [6] was above 100 µM in each case. Also, the total growth inhibition concentration (TGI) in [7], in assay [8], in assay [9], in assay [10] and in assay [11] was above 100 µM each time.
Take `CC(C)Oc1c(C2(c3ccccc3)SCCCS2)c(=O)c1=O`: the total growth inhibition concentration (TGI) in assay [1], in assay [2], in [3], in assay [4], in assay [5] and in [6] was above 100 µM in each case. The total growth inhibition concentration (TGI) in assay [7], in assay [8], in [9], in [10] and in assay [11] was above 100 µM throughout.
As to `COc1ccc(Nc2nc3ccccc3n3cccc23)cc1OC`, the concentration for total growth inhibition (TGI) was 33.1 µM in [1]; 9.51 µM in [2]; 36.6 µM in assay [3]; 36.4 µM in assay [4]; 28.9 µM in [5]; above 100 µM in assay [6]. For the same molecule, the TGI in [7] turned out to be 29.5 µM; in assay [9], 32.7 µM; in [10] it was 40.1 µM; in assay [11], 35 µM.
In the case of `CCOC(=O)N/N=C(/N)c1cccc(Br)c1`, the TGI in assay [1], in assay [2], in assay [4], in [6], in [7] and in assay [8] was above 100 µM in each case. Also, the TGI in assay [9], in assay [10] and in assay [11] was above 100 µM throughout.
Regarding `CCCCOCCOCCOC1=CC(=O)c2c(O)ccc(O)c2C1=O`, the concentration for total growth inhibition (TGI) is 3.63 µM in [1]; 6 µM in assay [2]; 3.06 µM in assay [3]; 3.22 µM in assay [4]; 2.95 µM in [5]; 6.5 µM in assay [6]. Besides, the TGI in assay [8] worked out at 3.22 µM; in assay [9], 3.22 µM; in assay [10] it was 3.86 µM; in assay [11], 2.95 µM.
With `O=c1[nH]nc(Cc2ccccc2)n1/N=C/c1cccs1`, the concentration for total growth inhibition (TGI) in [1], in [3], in assay [4], in [5], in assay [6] and in [7] was above 100 µM throughout. Besides, the concentration for total growth inhibition (TGI) in assay [8], in assay [9], in assay [10] and in [11] was above 100 µM throughout.

Values taken from PubChem BioAssay (NCI).
